Reference: PubChem BioAssay (NCI)
Where “and” joins values, the source holds several entries; their conditions need not be identical. Equal entries are not always repeated.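 1) Cells in 96-well plates. 2) Compound, 48 h, 5 concentrations. 3) Linear interpolation between surrounding doses. 4) Unreached endpoint = highest concentration. Definition used: TGI = concentration required for complete inhibition of growth.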

tested on: COLO 205 colon; experiment: DTP human tumour cell line panel, 48 h

Structure (SMILES)	TGI
CCN1CN(c2ccccc2)C2(CCN(CC3COc4ccccc4O3)CC2)C1=O (stereo not given)	31.5 µM
O=C1C=C/C(=N\N=C(c2ccccc2)c2ccccc2)O1	> 10 µM
N[C@@H](Cc1ccccc1)C(=O)N1CCC[C@@H]1P(=O)(Oc1ccccc1)Oc1ccccc1	> 100 µM
Cc1ccc(/C=N\NC2c3cc(Cl)ccc3Nc3nc(=O)[nH]c(C)c32)cc1 (stereo not given)	> 100 µM
O=c1[nH][nH]c(=O)n1CCCCCCn1c(=O)[nH][nH]c1=O	> 100 µM
CC(=O)NC1C(OCc2ccccc2)OC(CO)C(O)C1OCC(=O)N[C@@H](C)C(=O)N[C@H](CCC(=O)NCCCNc1c2ccccc2nc2cccc([N+](=O)[O-])c12)C(N)=O (stereo not given in full)	0.0185 µM
COc1ccc(-c2nc(SCC(=O)NNC(=S)Nc3ccccc3)[nH]c2-c2ccc(OC)cc2)cc1	30.4 µM
COc1ccc(C(=O)/C=C/c2ccc(OCCCOc3ccc(/C=C/C(=O)c4ccc(OC)cc4)cc3)cc2)cc1	> 100 µM
O=C(O)COc1ccccc1C(=O)Nc1ccccc1	> 100 µM
COc1cc(OC)cc(C(=O)CC(=O)c2cc(OC)cc(OC)c2)c1	> 100 µM
O=C(O)[C@H]1CCCN1CP(=O)(O)CN1CCC[C@@H]1C(=O)O	> 100 µM
O=C1CC2(CCC(O)(c3ccc4ccccc4c3)C(C(=O)c3ccc4ccccc4c3)C2)C(=O)c2ccccc2N1 (stereo not given)	> 100 µM
COc1cc2c(cc1OC)C(C(c1ccccc1)c1ccccc1)N(C)CC2 (stereo not given)	33.5 µM
CCOC(=O)N1CCC(N[C@@H]2c3cc4c(cc3C(c3cc(OC)c(O)c(OC)c3)C3C(=O)OC[C@@H]32)OCO4)CC1 (stereo not given in full)	15.1 µM and 13.1 µM
C[N+](C)([O-])CCOc1cc2c(c3ccccc13)-c1ccccc1C2=O	32.3 µM
CCOC(=O)C1S/C(=N\C(=N)N[N+](=O)[O-])N=C1C (stereo not given)	> 100 µM

Structure (SMILES)	TGI
O=[N+]([O-])C(=C(Nc1cccc2cccnc12)Nc1cccc2cccnc12)C(Cl)=C(Cl)Cl	> 100 µM
NS(=O)(=O)c1ccc(NC(=S)/N=C/C2=C(O)c3ccccc3C2=O)cc1	> 100 µM
O=C1NC2c3c(I)sc(I)c3C(O)C2O1 (stereo not given)	> 100 µM
Cc1nc(C)c(C(=O)NNC(=O)C[N+](C)(C)C)cc1C(=O)NNC(=O)C[N+](C)(C)C	> 100 µM
CNc1cc2c(c3ccccc13)C(CCl)CN2C(=O)c1cc2cc(OC)c(OC)c(OC)c2[nH]1 (stereo not given)	0.0114 µM
Cc1cccc(C)c1NC(=O)C(Cc1c[nH]c2ccccc12)NC(=O)OCc1ccccc1 (stereo not given)	27.6 µM
S=C1NC2=C(CSC/C2=C\c2cccc(Br)c2)C(c2cccc(Br)c2)N1 (stereo not given)	> 100 µM
CCCCCCCCCCCCCCCCNc1cccc2ccccc12	> 100 µM
O=C1OCC/C1=N/O	> 100 µM
Cc1ccc(C2=CC(=O)OC(C[P+](c3ccccc3)(c3ccccc3)c3ccccc3)(c3ccccc3)O2)cc1 (stereo not given)	28.3 µM
O=c1oc2cc(O)ccc2c(O)c1C(c1ccccc1)c1c(O)c2ccc(O)cc2oc1=O	> 100 µM
Cc1c(/C=N\NC(=S)NCCNC(=S)N/N=C\c2c(C)n(C)n(-c3ccccc3)c2=O)c(=O)n(-c2ccccc2)n1C	> 100 µM
O=P(O)(O)C(N=C(Nc1ccccc1)Nc1ccccc1)P(=O)(O)O	> 100 µM
CCOC(=O)c1c(-c2ccc(O)c(OC)c2)c(C#N)c(=S)n(C2OC(CO)C(O)C(O)C2O)c1-c1ccccc1 (stereo not given)	> 100 µM
CCCCCCCCCCCC[S+](C)C	5.15 µM

tested on: OVCAR-4 ovarian; experiment: DTP human tumour cell line panel, 48 h

Structure (SMILES)	TGI
O=C1C=C/C(=N\N=C(c2ccccc2)c2ccccc2)O1	> 10 µM
N[C@@H](Cc1ccccc1)C(=O)N1CCC[C@@H]1P(=O)(Oc1ccccc1)Oc1ccccc1	> 100 µM
O=c1[nH][nH]c(=O)n1CCCCCCn1c(=O)[nH][nH]c1=O	> 100 µM
CC(=O)NC1C(OCc2ccccc2)OC(CO)C(O)C1OCC(=O)N[C@@H](C)C(=O)N[C@H](CCC(=O)NCCCNc1c2ccccc2nc2cccc([N+](=O)[O-])c12)C(N)=O (stereo not given in full)	0.267 µM
COc1ccc(-c2nc(SCC(=O)NNC(=S)Nc3ccccc3)[nH]c2-c2ccc(OC)cc2)cc1	> 100 µM
COc1ccc(C(=O)/C=C/c2ccc(OCCCOc3ccc(/C=C/C(=O)c4ccc(OC)cc4)cc3)cc2)cc1	> 100 µM
O=C(O)COc1ccccc1C(=O)Nc1ccccc1	> 100 µM
COc1ccc(C2c3cn[nH]c3CC3CCCCC32)cc1 (stereo not given)	43.5 µM
O=C(O)[C@H]1CCCN1CP(=O)(O)CN1CCC[C@@H]1C(=O)O	> 100 µM
COc1cc2c(cc1OC)C(C(c1ccccc1)c1ccccc1)N(C)CC2 (stereo not given)	> 100 µM
C[N+](C)([O-])CCOc1cc2c(c3ccccc13)-c1ccccc1C2=O	42.9 µM
CCOC(=O)C1S/C(=N\C(=N)N[N+](=O)[O-])N=C1C (stereo not given)	> 100 µM
O=[N+]([O-])C(=C(Nc1cccc2cccnc12)Nc1cccc2cccnc12)C(Cl)=C(Cl)Cl	> 96.1 µM
NS(=O)(=O)c1ccc(NC(=S)/N=C/C2=C(O)c3ccccc3C2=O)cc1	> 100 µM
O=C1NC2c3c(I)sc(I)c3C(O)C2O1 (stereo not given)	> 100 µM
Cc1nc(C)c(C(=O)NNC(=O)C[N+](C)(C)C)cc1C(=O)NNC(=O)C[N+](C)(C)C	> 100 µM
Cc1cccc(C)c1NC(=O)C(Cc1c[nH]c2ccccc12)NC(=O)OCc1ccccc1 (stereo not given)	37.1 µM
S=C1NC2=C(CSC/C2=C\c2cccc(Br)c2)C(c2cccc(Br)c2)N1 (stereo not given)	> 100 µM
O=C1OCC/C1=N/O	> 100 µM
CC(O)CNC(=O)C(C)Oc1ccc(OCC2CCCCC2)cc1 (stereo not given)	> 100 µM
Cc1ccc(C2=CC(=O)OC(C[P+](c3ccccc3)(c3ccccc3)c3ccccc3)(c3ccccc3)O2)cc1 (stereo not given)	31.5 µM
O=c1oc2cc(O)ccc2c(O)c1C(c1ccccc1)c1c(O)c2ccc(O)cc2oc1=O	> 100 µM
Cc1c(/C=N\NC(=S)NCCNC(=S)N/N=C\c2c(C)n(C)n(-c3ccccc3)c2=O)c(=O)n(-c2ccccc2)n1C	> 100 µM
CCOC(=O)c1c(-c2ccc(O)c(OC)c2)c(C#N)c(=S)n(C2OC(CO)C(O)C(O)C2O)c1-c1ccccc1 (stereo not given)	> 100 µM
CCCCCCCCCCCC[S+](C)C	18.8 µM

tested on: PC-3 prostate; experiment: DTP human tumour cell line panel, 48 h

Structure (SMILES)	TGI
CCN1CN(c2ccccc2)C2(CCN(CC3COc4ccccc4O3)CC2)C1=O (stereo not given)	79.2 µM
O=C1C=C/C(=N\N=C(c2ccccc2)c2ccccc2)O1	> 10 µM
N[C@@H](Cc1ccccc1)C(=O)N1CCC[C@@H]1P(=O)(Oc1ccccc1)Oc1ccccc1	> 100 µM
O=c1[nH][nH]c(=O)n1CCCCCCn1c(=O)[nH][nH]c1=O	> 100 µM
CC(=O)NC1C(OCc2ccccc2)OC(CO)C(O)C1OCC(=O)N[C@@H](C)C(=O)N[C@H](CCC(=O)NCCCNc1c2ccccc2nc2cccc([N+](=O)[O-])c12)C(N)=O (stereo not given in full)	0.493 µM
COc1ccc(-c2nc(SCC(=O)NNC(=S)Nc3ccccc3)[nH]c2-c2ccc(OC)cc2)cc1	73.7 µM
CCCCCC#CCOC(=O)C(=[N+]=[N-])P(=O)(c1ccccc1)c1ccccc1	> 10 µM
COc1ccc(C(=O)/C=C/c2ccc(OCCCOc3ccc(/C=C/C(=O)c4ccc(OC)cc4)cc3)cc2)cc1	> 100 µM
CCOc1cc(/C=C2/C(C)=NN(c3cccc(Cl)c3)/C2=N/c2nc3ccccc3s2)ccc1O	43.5 µM
COc1cc(OC)cc(C(=O)CC(=O)c2cc(OC)cc(OC)c2)c1	> 100 µM
COc1ccc(C2c3cn[nH]c3CC3CCCCC32)cc1 (stereo not given)	29.8 µM
O=C(O)[C@H]1CCCN1CP(=O)(O)CN1CCC[C@@H]1C(=O)O	> 100 µM
O=C1CC2(CCC(O)(c3ccc4ccccc4c3)C(C(=O)c3ccc4ccccc4c3)C2)C(=O)c2ccccc2N1 (stereo not given)	> 100 µM
O=[N+]([O-])C(=C(Nc1cccc2cccnc12)Nc1cccc2cccnc12)C(Cl)=C(Cl)Cl	> 100 µM
